Experimental data: US20240018121A1, “NOVEL HETEROAROMATIC COMPOUNDS EXHIBITING ANTIFUNGAL ACTIVITY AND THEIR METHOD OF USE” (FOX CHASE CHEMCIAL DIVERSITY CENTER, INC., priority 2020, published 2024)
Values after ≈ are worked out from the molar mass of the structure shown.

Key:
Assay type in all cases: cell-based
[1] = system: Fusarium solani (ATCC 58877); experiment: Fungal MIC Protocol, Fusarium solani; conditions: Fusarium solani, ATCC58877; 100% growth inhibition at 48 hours; read-out: MIC Fusarium solani 58877
Experimental: (§1) Fungal MIC Protocol: RPMI/MOPS media (Roswell Park Memorial Institute/3-morpholinopropane-1-sulfonic acid media) is prepared by dissolving 8.4 grams RPMI […] (Sigma cat #R1383), 34.52 grams MOPS buffer (Sigma cat #M3.183) and 2 […] glucose in 900 mL deionized water. The pH is adjusted to 7.0 with NaOH and filter sterilized. 0.1 mL, of a stock spore suspension (or loop from frozen stock) is inoculated to a 75 mL tissue culture flask (Falcon cat #353136) containing 50 mL of Potato Dextrose Agar (PDA, 24 grams PD broth (Fisher cat #DF 0549179), 20 grams agar (Fisher cat #BP 1423500) per liter water). Aspergillus and Fusarium strains are grown at 35° C. and Mucor strains are grown at room temperature for 3-5 days. Spores are harvested by flooding the flask with 5 mL phosphate buffered saline (PBS) pH 7.4+0.1% Tween-20 and several glass beads (Fisher cat #S800243) are added to aid in agitation. The supernatant is removed and the OD530 of a 1:100 dilution is measured. Spores are diluted in RPMI/MOPS to a final OD530 of 0.002 for Aspergillus and an OD530 of 0.005 for Fusarium and Mucor. The final concentration of spores is approximately 2×10^4 cfu/mL. Test compound(s) are diluted to 200 ug/mL in RPMI/MOPS ([…]). Ten (10) serial dilutions are prepared with RPMI/MOPS in a 96-well round bottom plate (Fisher cat #353136). For Mucor strains a sterile flat-bottom 96-well plate is used. 50 μl of compound dilutions in duplicate are added to a sterile 96-well round bottom plate. 50 ul of diluted spores are added to the compound-containing plates. Control wells include 1) compound but no cells and 2) spores but no compound. Mix the plates gently by hand, place in ziplock bags and
(§2) incubate at 35° C. for 48 hours. […]

[2] = system: Fusarium falciforme FS1 (ATCC MYA-3636); experiment: Fungal MIC Protocol, Fusarium falciforme; conditions: Fusarium falciforme; 100% growth inhibition at 48 hours; read-out: MIC Fusarium falciforme 3636
Experimental: as §1, §2

[3] = system: Aspergillus flavus AFL1 (ATCC MYA-3631); experiment: Fungal MIC Protocol, Aspergillus flavus; conditions: Aspergillus flavus; 100% growth inhibition at 48 hours; read-out: MIC Aspergillus flavus 3631
Experimental: as §1, §2

[4] = system: Mucor ramosissimus 057718 (ATCC 90286); experiment: Fungal MIC Protocol, Mucor ramosissimus (MIC-50); conditions: Mucor ramosissimus, ATCC90286; 50% growth inhibition at 48 hours; read-out: MIC-50 Mucorales ramosissimus 90286
Experimental: as §1
(§3) incubate at 35° C. for 48 hours. Score the MIC visually (lowest concentration of compound showing >50% growth inhibition) using an inverted mirror.

[5] = system: Mucor circinelloides 1463(62) (ATCC 26759); experiment: Fungal MIC Protocol, Mucor circinelloides (MIC-50); conditions: Mucor circinelloides, ATCC26759; 50% growth inhibition at 48 hours; read-out: MIC-50 Mucorales circinelloides 26579
Experimental: as §1, §3

[6] = system: Aspergillus fumigatus T33439 (ATCC MYA-3626); experiment: Fungal MIC Protocol, Aspergillus fumigatus; conditions: Aspergillus fumigatus; 100% growth inhibition at 48 hours; read-out: MIC Aspergillus fumigatus 3626
Experimental: as §1, §2

Candida albicans GDH2346 = experiment: Candida Minimal Inhibitory Concentration (MIC); conditions: Candida albicans, GDH2346; 50% growth inhibition at 48 hours; read-out: MIC-50 Candida albicans GDH2346
Experimental: Candida Minimal Inhibitory Concentration (MIC): RPMI/MOPS media is prepared by dissolving 8.4 g RPMI 1640, 34.52 g MOPS buffer and 2 g glucose in 900 mL water. The pH is adjusted to 7.0 with NaOH. The total volume is brought to 1 L and the resulting solution is filter sterilized. The Candida stock is streaked on a Yeast extract Peptone Dextrose (YPD) agar plate and grown at 35° C. for isolation of single colonies. Compounds of the disclosure are diluted to 200 μg/mL in RPMI/MOPS (4.8 ul of 10 mg/mL DMSO stock in 240 ul media). Ten (10) 1:2 serial dilutions are prepared in RPMI/MOPS in a 96-well round bottom plate. Fifty (50) μl of compound dilutions are transferred in duplicate to a sterile tissue culture-treated 96-well flat-bottom, black-sided polypropylene plate. A single colony of Candida from the YPD plate is re-suspended in 5 mL phosphate buffered saline (BS) and optical density (OD) at 600 nm is measured. The suspension is adjusted to OD=1.0 and a 1:1000 dilution is prepared in RPMI/MOPS. Fifty (50) ul aliquots of the diluted yeast are added to the plates containing 50 μL of compound to all wells except 12E-H. Control wells include: 12 A-D cells, no compound and 12 E-H no cells, no compound. The plates are mixed gently by hand and placed in Ziplok bags in a 35° C. incubator. The OD600 is measured at 24 and 48 hours.

Row | Structure (SMILES) | MIC [1] [µg/mL] | MIC [2] [µg/mL] | MIC [3] [µg/mL] | MIC50 [4] [µg/mL] | MIC50 [5] [µg/mL] | MIC [6] [µg/mL] | MIC50 (Candida albicans GDH2346) [µg/mL]
1 | Cn1c(-c2ccc(C3=CCN(C(=N)N)CC3)cc2)nnc1-c1ccc(C2=CCN(C(=N)N)CC2)cc1 [Example 1, 4,4-(4,4-(4-Methyl-4H-1,2,4-triazole-3,5-diyl)bis(4,1-phenylene))bis(5,6-dihydropyridine-1(2H)-carboximidamide)] | 0.78 (≈ 1.62 µM) | < 0.05 | 0.1 (≈ 0.208 µM) | 0.78 (≈ 1.62 µM) | 0.2 (≈ 0.415 µM) | < 0.05 | < 0.2
2 | CCn1c(-c2ccc(C3=CCN(C(=N)N)CC3)cc2)nnc1-c1ccc(C2=CCN(C(=N)N)CC2)cc1 [Example 2, 4,4′-(4,4′-(4-Ethyl-4H-1,2,4-triazole-3,5-diyl)bis(4,1-phenylene)) bis(5,6-dihydropyridine-1(2H)-carboximidamide)] | < 0.1 | < 0.1 | < 0.1 | > 100 | > 100 | 0.2 (≈ 0.404 µM) | < 0.024
3 | CC(C)n1c(-c2ccc(C3=CCN(C(=N)N)CC3)cc2)nnc1-c1ccc(C2=CCN(C(=N)N)CC2)cc1 [Example 3, 4,4′-(4,4′-(4-isopropyl-4H-1,2,4-triazole-3,5-diyl)bis(4,1-phenylene))bis(5,6-dihydropyridine-1 (2H)-carboximidamide)] | < 0.1 | < 0.1 | < 0.1 | 0.78 (≈ 1.53 µM) | 0.39 (≈ 0.765 µM) | < 0.1 | 0.1 (≈ 0.196 µM)
4 | CCOCCOCCn1c(-c2ccc(C3=CCN(C(=N)N)CC3)cc2F)nnc1-c1ccc(C2=CCN(C(=N)N)CC2)cc1F [Example 9, 4,4′-(4,4′-(4-(2-(2-Ethoxyethoxy)ethyl)-4H-1,2,4-triazole-3,5-diyl)bis(3-fluoro-4,1-phenylene))bis(5,6-dihydropyridine-1(2H)-carboximidamide)] | 0.2 (≈ 0.323 µM) | 0.2 (≈ 0.323 µM) | 0.39 (≈ 0.629 µM) | 3.13 (≈ 5.05 µM) | 3.13 (≈ 5.05 µM) | 0.2 (≈ 0.323 µM) | < 0.1
5 | CCn1c(-c2ccc(C3=CCN(C(=N)N)CC3)cc2F)nnc1-c1ccc(C2=CCN(C(=N)N)CC2)cc1F [Example 10, 4,4′-(4,4′-(4-Ethyl-4H-1,2,4-triazole-3,5-diyl)bis(3-fluoro-4,1-phenylene)) bis(5,6-dihydropyridine-1(2H)-carboximidamide)] | < 0.1 | < 0.1 | < 0.1 | 1.56 (≈ 2.93 µM) | 0.78 (≈ 1.47 µM) | < 0.1 | < 0.1
6 | N=C(N)N1CC=C(c2ccc(-c3nnc(-c4ccc(C5=CCN(C(=N)N)CC5)cc4F)n3C3CCN(C(=N)N)CC3)c(F)c2)CC1 [Example 12, 4,4′-(4,4′-(4-(1-Carbamimidoylpiperidin-4-yl)-4H-1,2,4-triazole-3,5-diyl)bis (3-fluoro-4,1-phenylene))bis(5,6-dihydropyridine-1(2H)-carboximidamide)] | < 0.1 | 0.39 (≈ 0.62 µM) | 3.13 (≈ 4.98 µM) | > 100 | > 100 | 3.13 (≈ 4.98 µM) | 12.5 (≈ 19.9 µM)
7 | CC(C)Cn1c(-c2ccc(C3=CCN(C(=N)N)CC3)cc2F)nnc1-c1ccc(C2=CCN(C(=N)N)CC2)cc1F [Example 14] | 6.25 (≈ 11.2 µM) | < 0.1 | < 0.1 | 1.56 (≈ 2.79 µM) | < 0.1 | < 0.1 | 0.39 (≈ 0.697 µM)
8 | CN1CCC(n2c(-c3ccc(C4=CCN(C(=N)N)CC4)cc3F)nnc2-c2ccc(C3=CCN(C(=N)N)CC3)cc2F)CC1 [Example 15, 4,4′-(4,4′-(4-(1-Methylpiperidin-4-yl)-4H-1,2,4-triazole-3,5-diyl)bis(3-fluoro-4,1-phenylene))bis(5,6-dihydropyridine-1(2H)-carboximidamide)] | < 0.1 | 0.78 (≈ 1.3 µM) | 3.13 (≈ 5.21 µM) | > 100 | > 100 | 3.13 (≈ 5.21 µM) | 25 (≈ 41.6 µM)

Continued, values first:

Row | MIC [1] [µg/mL] | MIC [2] [µg/mL] | MIC [3] [µg/mL] | MIC50 [4] [µg/mL] | MIC50 [5] [µg/mL] | MIC [6] [µg/mL] | MIC50 (Candida albicans GDH2346) [µg/mL] | Structure (SMILES)
9 | 0.39 (≈ 0.748 µM) | < 0.1 | 0.39 (≈ 0.748 µM) | 1.56 (≈ 2.99 µM) | 0.78 (≈ 1.5 µM) | 0.2 (≈ 0.383 µM) | 3.13 (≈ 6 µM) | N=C(N)N1CC=C(c2ccc(-c3nnc(-c4ccc(C5=CCN(C(=N)N)CC5)cc4)n3C3CCC3)cc2)CC1 [Example 6, 4,4′-(4,4′-(4-Cyclobutyl-4H-1,2,4-triazole-3,5-diyl)bis(4,1-phenylene))bis(5,6-dihydropyridine-1(2H)-carboximidamide)]
10 | 0.39 (≈ 0.677 µM) | < 0.1 | 0.78 (≈ 1.35 µM) | 1.56 (≈ 2.71 µM) | 0.78 (≈ 1.35 µM) | < 0.1 | 3.13 (≈ 5.44 µM) | N=C(N)N1CC=C(c2ccc(-c3nnc(-c4ccc(C5=CCN(C(=N)N)CC5)cc4F)n3Cc3ccccc3)cc2)CC1 [Example 7, 4-(4-(4-Benzyl-5-(4-(1-carbamimidoyl-1,2,3,6-tetrahydropyridin-4-yl)-2-fluorophenyl)-4H-1,2,4-triazol-3-yl)phenyl)-5,6-dihydropyridine-1(2H)-carboximidamide]
11 | 0.05 (≈ 0.0966 µM) | 0.006 (≈ 0.0116 µM) | 0.05 (≈ 0.0966 µM) | 0.39 (≈ 0.753 µM) | 0.2 (≈ 0.386 µM) | 0.05 (≈ 0.0966 µM) | 0.1 (≈ 0.193 µM) | Cn1c(-c2ccc(C3=CCN(C(=N)N)CC3)cc2F)nnc1-c1ccc(C2=CCN(C(=N)N)CC2)cc1F [Example 8, 4,4′-(4,4′-(4-Methyl-4H-1,2,4-triazole-3,5-diyl)bis(3-fluoro-4,1-phenylene)) bis(5,6-dihydropyridine-1(2H)-carboximidamide)]
12 | 0.2 (≈ 0.325 µM) | 0.2 (≈ 0.325 µM) | 0.78 (≈ 1.27 µM) | 3.13 (≈ 5.08 µM) | 1.56 (≈ 2.53 µM) | 0.39 (≈ 0.633 µM) | 1.56 (≈ 2.53 µM) | CCCCCCCCn1c(-c2ccc(C3=CCN(C(=N)N)CC3)cc2F)nnc1-c1ccc(C2=CCN(C(=N)N)CC2)cc1F [Example 11, 4,4′-(4,4′-(4-Octyl-4H-1,2,4-triazole-3,5-diyl)bis(3-fluoro-4,1-phenylene))bis(5,6-dihydropyridine-1(2H)-carboximidamide)]
13 | 6.25 (≈ 11.5 µM) | 0.78 (≈ 1.43 µM) | 0.2 (≈ 0.367 µM) | 1.56 (≈ 2.86 µM) | 0.39 (≈ 0.715 µM) | < 0.1 | 0.2 (≈ 0.367 µM) | CC(C)n1c(-c2ccc(C3=CCN(C(=N)N)CC3)cc2F)nnc1-c1ccc(C2=CCN(C(=N)N)CC2)cc1F [Example 13, 4,4-(4,4-(4-Isopropyl-4H-1,2,4-triazole-3,5-diyl)bis(3-fluoro-4,1-phenylene))bis(5,6-dihydropyridine-1(2H)-carboximidamide)]
